Measurements taken from patent US4997757A, “Process for detecting potential carcinogens” (GeneBioMed, Inc., priority 1988, dated 1991).

What was measured:
[1] = test system: strain RS112; assay: plating efficiency after MBC treatment; assay type: cell-based, Saccharomyces cerevisiae; settings: 100 μg/ml, 5 to 7 hours at 30° C.
Protocol: (§1) The applicant has reproduced the method published in the aforementioned paper by Fabre et al. Mol. Gen. Genet. 195:139143 (1984) to obtain mostly G1 (stationary) and G2 arrested cells by using Methyl-Benzimidazole-Carbamate (MBC) to arrest the cells in G2 : Strain used for the experiment was RS112, the genotype of which is given below: [drawing 1] Media were the same as described at another part of the specification. Stationary cells were obtained by incubation of cells in liquid YPD at 30° C. for 48 hours. Stationary cells were more than 85% in G1. To obtain cells arrested in G2 the cells were incubated in YPD containing the fungicide methyl benzimidazol-2-yl carbamate (MBC) (stock solution 10 mg/ml) at a concentration of 100 μg/ml at a cell density of 10^7 cells/ml for 5 to 7 hours at 30° C. […] Log phase cells were obtained by incubation of the cells in YEPD for the same time period without MBC. Log phase cultures contained cells in all stages. The cells were irradiated with UV light at a dose of 0-40 J/m2 and cells were held at G1, log or G2 for another two hours to allow repair of the damage in the respective stage. The cells were than collected by centrifugation and washed twice, plated for survivals onto SC medium, for determination of interchromosomal conversion events onto SC-Ade and for determination of SCC onto SC-His.

[2] = test system: strain RS112; assay: G2 arrest of yeast cells by MBC; assay type: cell-based, Saccharomyces cerevisiae; settings: 100 μg/ml, 5 to 7 hours at 30° C.
Protocol: as §1

[3] = test system: strain RS112 (his3 deletion alleles); assay: SCC (sister chromatid conversion) intrachromosomal recombination system, deletion alleles of his3; assay type: cell-based, Saccharomyces cerevisiae; settings: strain RS112
Excerpt: In the most preferred embodiment it is preferable to grow the cells in a medium which selects against the occurrence of the genome rearrangement to keep the control values as low as possible. In the embodiment described in FIG. 1 it is shown that the LEU2 gene of construct 10 is lost after the genome rearrangement which results in construct 22. Therefore cells containing construct 10, before the rearrangement are able to grow in the absence of leucine in the medium, but cells containing construct 22, after the genome rearrangement are not able to grow in the absence of leucine. After the genome rearrangement cells containing construct 22 are able to grow in the absence of histidine in the medium, but cells containing construct 10 before the genome rearrangement are not able to grow in the absence of histidine. Therefore the selection scheme which was used for Example 3 involves growth of the yeast culture in medium lacking leucine but containing histidine before and during the exposure to the potential carcinogens or other test agents. After the exposure the cells which have undergone genome rearrangement are selected on medium lacking histidine but containing leucine.
(§2) It is preferred that, when the cells are to be grown in the presence of the agent, logarithmic phase cultures are used. In one embodiment, for each of the test strains, a cell suspension of 2×10^6 cells per milliliter-LEU medium be prepared from a logarithmic phase culture pregrown in liquid-LEU medium. The whole mix is aliquoted into portions of 5 milliliter into disposable plastic tubes in the presence of the agent to be tested, the tubes are sealed and shaken continuously for 17 hours.
After the yeast cells have been exposed to both the agent to be tested and the selection medium under the conditions of the test and have been incubated for some time period of about more than one day preferably at 30 degrees Celsius or any other temperature which allows growth of the yeast cells used, the number of colonies formed by cells which have undergone genome rearrangement are counted and compared with the number of colonies of yeast cells identical in substantially every respect with the exception of not having been exposed to the suspected carcinogenic agent. The rates of genome rearrangement for both the control and experimental samples are then compared.
Plasmids were constructed as substrates to study intrachromosomal recombination; see an earlier part of the specification and Example 1. The plasmids pRS6 (FIG. 7, construct 108) and pRS11 (FIG. 9, construct 118) both contained an internal fragment of the HIS3 gene as well as one selectable marker (LEU2). pRS11 in addition contained the 2 μm origin of replication to select for the presence of the plasmid after plasmid excision. pRS11FRT-had the FLP recombination site disrupted (see Example 1). Yeast strains RSY6 containing construct 10, RSY11 containing construct 118 and RSY11FRT- (see Example 1) were used. They contained the respective pRS plasmids integrated into the HIS3 gene of strain S35/2-10C giving rise to disruptions of the HIS3 gene construct 10 or analogs to it (FIG. 10). The two resulting his3 deletion alleles (FIG. 10) shared about 400 basepairs of homology and thus could interact with each other by homologous recombination. Reversion of his- to HIS+ occurred at a frequency of about 4×10^-4 in all three strains. All of 100 tested HIS+ revertants of strain RSY6 were leu-. Because of this observation strains used for recombination studies were always pregrown on -LEU medium to prevent growth of HIS+ revertants. Therefore the frequency of HIS+ revertants is a measure of the recombination rate.
The strain used in this example was RS112 which was obtained by crossing strain RSY6 with strain 428. RSY6 contains the SCC system and was deposited at November 30 under "ATCC designation number 20871" with the American Type Culture Collection of 12301 Parklawn Drive, Rockville, Md. 20852. […]

[4] = test system: rats; settings: cited from earlier work
[5] = test system: mammalian cells; settings: cited from earlier work
[6] = test system: strain RS112 (heteroalleles ade2-40 and ade2-101); assay: ICC (interchromosomal gene conversion) between heteroalleles ade2-40 and ade2-101; assay type: cell-based, Saccharomyces cerevisiae; settings: strain RS112
Protocol: as §2
(§3) The strain used in this example was RS112 which was obtained by crossing strain RSY6 with strain 428. RSY6 contains the SCC system and was deposited at November 30 under "ATCC designation number 20871" with the American Type Culture Collection of 12301 Parklawn Drive, Rockville, Md. 20852. Strain 428 was obtained from M. Snyder, Department of Biology, at Yale University, New Haven, Conn. and was used because it contains the mutation his3Δ-200, the construction of which has been described in an article by Struhl entitled "Naturally occurring poly(dA-dT) sequences are upstream promoter elements of constitutive transcription in yeast, published in Proc. Natl. Acad. Sci. USA 82 on pages 8419-8423. Strains containing the his3Δ-200 mutation are readily available to those skilled in the art.
Strain RS112 has the following genotype: [drawing 2]
Values for the intrachromosomal recombination system between deletion alleles of his3 are designated as SCC. Also strain RS112 contained heteroallelic mutations in ade2 so that the frequency of interchromosomal gene conversion (ICC) between heteroalleles in a diploid was determined. ICC was measured as recombination between the heteroalleles ade2-40 and ade2-101 by selecting for ADE+. Values obtained are given to compare the performance of the two systems.
The frequencies for ICC are given in events per 10^5 survivals, and the frequencies for SCC are given in events per 10^4 survivals. It has to be noted that for sister chromatid recombination in mammalian cells the increase even with potent carcinogens is usually less than ten fold and also slight increases have been taken as positive results. For instance an increase in frequency of two fold has been taken to be significant; see a publication by Rudiger et al. entitled "Metabolites of diethylstilbestrol induce sister chromatid exchange in human cultured fibroblasts." published in Nature 281:392-394).

[7] = survival of yeast exposed to agent; assay type: cell-based, Saccharomyces cerevisiae
Excerpt: It is preferred to conduct a preliminary experiment to determine those concentrations of the agent to be tested which should be evaluated in the main experiment. Yeast cells are exposed to a wide range of concentrations of the agent to be tested to determine its cytotoxicity.
as §2, §3

[8] = test system: rat liver; settings: in vivo; cited from earlier work
[9] = test system: mice; settings: cited from earlier work
[10] = in vivo; cited from earlier work
[11] = test system: mammalian cells; settings: cited from earlier work; remark: listed apart in the source
[12] = test system: Salmonella typhimurium; settings: cited from earlier work

## COC(=O)Nc1nc2ccccc2[nH]1 [MBC, methyl benzimidazol-2-yl carbamate]
[1]
  plating efficiency: never decreased
[2]
  cells showing characteristic G2 arrest: more than 90%

## C=CCc1ccc2c(c1)OCO2 [Safrole]
[3]; 0.05 %
  SCC/10^4 cells: 0.94 /10^4 cells
[3]; 0.1 %
  SCC/10^4 cells: 1.22 /10^4 cells
[3]; 0.2 %
  SCC/10^4 cells: 2.4 /10^4 cells
[3]; 0.4 %
  SCC/10^4 cells: 14.1 /10^4 cells
[4]
  carcinogenicity: produces liver cancer in mice and rats
[5]
  SCE assay result: negative
[6]; 0.05 %
  ICC/10^5 cells: 1.07 /10^5 cells
[6]; 0.1 %
  ICC/10^5 cells: 0.59 /10^5 cells
[6]; 0.2 %
  ICC/10^5 cells: 0.82 /10^5 cells
[6]; 0.4 %
  ICC/10^5 cells: 1.36 /10^5 cells
[7]; yeast strain rs112, 0.05 %
  viability at 17 h: 112%
[7]; yeast strain rs112, 0.1 %
  viability at 17 h: 95%
[7]; yeast strain rs112, 0.2 %
  viability at 17 h: 76%
[7]; yeast strain rs112, 0.4 %
  viability at 17 h: 4.6%
[8]
  rat liver foci assay result: negative
[9]
  carcinogenicity: produces liver cancer in mice and rats
[10]
  carcinogenicity: known carcinogens
[11]
  chromosomal aberration assay result: negative
[12]
  Ames Assay result: negative
